Molecules are shown by their SMILES. Converted amounts (≈) assume the structure as drawn. Like-named read-outs stand apart in the source and are kept apart here.

What all share (format): cell-based
The test system of assay [1] is A. fumigatus MYA-3626. Put plainly: MEC assay (Example 31). To be noted: RPMI pH 7.0, 35° C., 24-48 hr. How it is done: (§1) The test organisms consisted of strains from the Micromyx collection. Reference isolates were originally received from the American Type Culture Collection (ATCC; Manassas, Va.). Organisms received at Micromyx were initially streaked for isolation on Sabouraud dextrose or potato dextrose agar. Colonies were picked by swab from the medium and resuspended in the appropriate broth containing cryoprotectant. The suspensions were aliquoted into cryogenic vials and maintained at −80° C. Prior to testing, Candida isolates were streaked from the frozen vials on Sabouraud dextrose agar. The yeast isolates were incubated at overnight at 35° C. before use. The fungal isolates were incubated at least 7 days on Sabouraud dextrose agar slants at 35° C. before harvesting.
(§2) Isolates were tested in RPMI medium (Catalog No. SH30011.04; Lot No. AWA92121B; HyClone Labs, Logan, Utah) which was prepared according to CLSI guidelines. The pH of the medium was adjusted to 7.0 with 1 N NaOH. The medium was sterile filtered using a 0.2 μm PES filter and stored at 4° C. until used.
(§3) The MIC assay method employed automated liquid handlers to conduct serial dilutions and liquid transfers. Automated liquid handlers included the Multidrop 384 (Labsystems, Helsinki, Finland), Biomek 2000 and Biomek FX (Beckman Coulter, Fullerton Calif.). The wells in columns 2-12 in standard 96-well microdilution plates (Costar 3795) were filled with 150 μl of the correct diluent (50% DMSO for investigational compounds, 100% DMSO for comparator compounds). These would become the mother plates' from which ‘daughter’ or test plates would be prepared. Stocks were diluted to 40× the desired top concentration in the test plates in the indicated solvent, and 300 μL of the 40× stock was dispensed into the appropriate well in Column 1 of the mother plates. The Biomek 2000 was used to make serial serial 2-fold dilutions through Column 11 in the “mother plate”. The wells of Column 12 contained no drug and served as the organism growth control wells.
(§4) The daughter plates were loaded with 185 μL per well of RPMI described above using the Multidrop 384. The daughter plates were prepared using the Biomek FX which transferred 5 μL of drug solution from each well of a mother plate to the corresponding well of the daughter plate in a single step.
(§5) A standardized inoculum of each organism was prepared. For Candida, colonies were picked from the streak plate and a suspension was prepared in RPMI medium equal to a 0.5 McFarland standard, then diluted 1:100 in RPMI and transferred to compartments of sterile reservoirs divided by length (Beckman Coulter). For the Aspergillus isolates, previously prepared and quantitated suspensions were used to make dilutions in RPMI to reach 20× the final concentration. These dilutions were also transferred to compartments of sterile reservoirs divided by length (Beckman Coulter). The final concentration of the Aspergillus isolates was approximately 0.2-2.5×10^4 CFU/mL.
(§6) The Biomek 2000 was used to inoculate the plates. Daughter plates were placed on the Biomek 2000 work surface reversed so that inoculation took place from low to high drug concentration. The Biomek 2000 delivered 10 μL of standardized inoculum into each well. Thus, the wells of the daughter plates ultimately contained 185 μL of RPMI, 5 μL of drug solution, and 10 μL of inoculum. The final concentration of DMSO in the test well was 2.5% for the evaluated comparators and 1.25% for the investigational agents.
(§7) Plates were stacked 3 high, covered with a lid on the top plate, placed into plastic bags, and incubated at 35° C. for approximately 24-48 hr prior to reading. Plates were read when inoculum was confluent in growth wells. Plates were viewed from the bottom using a plate viewer. […] MICs were read where visible growth of the organism was inhibited. MECs were read where the growth shifted to a small, rounded, compact hyphal form as compared to the hyphal growth seen in the growth control well.

For assay [2], the system named is A. fumigatus MX 5944. In words: MEC assay (Example 31). To be noted: RPMI pH 7.0, 35° C., 24-48 hr. The protocol: as §1, §2, §3, §4, §5, §6, §7
Assay [3] concerns A. flavus MX 5948. In words: MEC assay (Example 31). To be noted: RPMI pH 7.0, 35° C., 24-48 hr. The protocol:
as §1, §2, §3, §4, §5, §6, §7

Assay [4] deals with A. fumigatus MYA-4609. Put plainly: MEC assay (Example 31). To be noted: RPMI pH 7.0, 35° C., 24-48 hr. How it is done: as §1, §2, §3, §4, §5, §6, §7
Assay [5] concerns A. fumigatus ATCC 13073. Put plainly: MEC assay (Example 31). To be noted: RPMI pH 7.0, 35° C., 24-48 hr. The protocol:
as §1, §2, §3, §4, §5, §6, §7

Assay [6] concerns Neutrophils purified from human peripheral blood. In words: Human Neutrophil Transwell Migration Assay. The conditions noted are these: 37° C., 45 minutes, % of the maximum migration possible. The source says:
Neutrophils were purified from human peripheral blood utilizing PolymorphPrep. Red blood cells were lysed with a lysis buffer and the cells were washed, counted and resuspended in assay buffer. Neutrophils (approximately 50,000 to 100,000 in number) were placed over 5-micon pore sized transwell plates in 24-well format with test compounds in the bottom chamber of each well. A negative control of media alone in the bottom chamber was set up in triplicate. A positive control where the neutrophils were added directly to the bottom well was set up in triplicate.
The plates were incubated at 37° C. for 45 minutes to allow for migration. After this time, migration was confirmed visually and then an aliquot (⅙^th of total cells) from each well was taken for ATP detection via luminescence with ATPlite (PerkinElmer) to quantify the number of migrated cells. The averaged reading for random migration detected in the negative control was subtracted from all readings to obtain the corrected migration number. These numbers were then divided by the averaged reading from the positive control to get the % Neutrophil Migration of the maximum migration possible.

For assay [7], the system named is C. glabrata ATCC 90030. In words: microbe, parasite or virus in culture. How it is done:
as §1, §2, §3, §4, §5, §6, §7

Assay [8] relates to C. parapsilosis ATCC 22019. In words: microbe, parasite or virus in culture. The protocol:
as §1, §2, §3, §4, §5, §6, §7

In assay [9] the test system is C. albicans ATCC 90028. Put plainly: microbe, parasite or virus in culture. How it is done: as §1, §2, §3, §4, §5, §6, §7
Assay [10] deals with C. krusei ATCC 14243. In words: microbe, parasite or virus in culture. The protocol:
as §1, §2, §3, §4, §5, §6, §7

On to `CC[C@H](C)C[C@H](C)CCCCCCCCC(=O)N[C@H]1C[C@@H](O)[C@@H](NCCNC(=O)C(Cc2ccccc2)NC(=O)C(CC(C)C)NC(=O)C(CCSC)NC(=O)Nc2ccc(Cl)cc2)NC(=O)[C@@H]2[C@@H](O)CCN2C(=O)[C@H]([C@H](O)CCN)NC(=O)[C@H]([C@H](O)[C@@H](O)c2ccc(O)cc2)NC(=O)[C@@H]2C[C@@H](O)CN2C(=O)[C@H]([C@@H](C)O)NC1=O` (single isomer, unassigned) [Compound 13b], for which the MEC in assay [1] amounted to 0.25 µg/mL; in [2] it was 0.25 µg/mL; in assay [3] it was 0.12 µg/mL; in assay [4], 0.12 µg/mL; in assay [5], 0.25 µg/mL. The “% Neutrophil Migration” value in assay [6] (conc 0.001 μg/mL) is on record as 6.2%; in assay [6] (conc 0.01 μg/mL), 26.1%; in assay [6] (conc 0.1 μg/mL), 11.5%; in assay [6] (conc 1 μg/mL), −8.5%; in [6] (conc 10 μg/mL), −7.6%. The MIC is 8 µg/mL (≈ 4.88 µM) in [7] (C. glabrata ATCC 90030, RPMI pH 7.0, 35° C., 24-48 hr); 32 µg/mL (≈ 19.5 µM) in assay [8] (C. parapsilosis ATCC 22019, RPMI pH 7.0, 35° C., 24-48 hr); 2 µg/mL (≈ 1.22 µM) in assay [9] (C. albicans ATCC 90028, RPMI pH 7.0, 35° C., 24-48 hr); 16 µg/mL (≈ 9.77 µM) in assay [10] (C. krusei ATCC 14243, RPMI pH 7.0, 35° C., 24-48 hr).
On to `CC[C@H](C)C[C@H](C)CCCCCCCCC(=O)N[C@H]1C[C@@H](O)[C@@H](NCCNC(=O)[C@H](Cc2ccccc2)NC(=O)[C@H](CC(C)C)NC(=O)[C@H](CCSC)NC=O)NC(=O)[C@@H]2[C@@H](O)CCN2C(=O)[C@H]([C@H](O)CCN)NC(=O)[C@H]([C@H](O)[C@@H](O)c2ccc(O)cc2)NC(=O)[C@@H]2C[C@@H](O)CN2C(=O)[C@H]([C@@H](C)O)NC1=O` [Compound 2], for which the MEC in assay [1] was 0.25-1^ μg/mL; in assay [2], 0.12 to 1 µg/mL; in assay [3], 0.06 to 1 µg/mL; in assay [4], 0.12 to 1 µg/mL; in assay [5], 0.12 to 2 µg/mL. Also, the “% Neutrophil Migration” value in assay [6] (conc 0.001 μg/mL) is on record as −5.3%; in [6] (conc 0.01 μg/mL), 28.5%; in assay [6] (conc 0.1 μg/mL) it was 97.5%; in assay [6] (conc 1 μg/mL), 30.6%; in [6] (conc 10 μg/mL), −11.0%. Also, the MIC is 4 µg/mL (≈ 2.64 µM) in assay [7] (ATCC 90030, pH 7); 16 µg/mL (≈ 10.6 µM) in [8] (ATCC 22019, pH 7); 2 µg/mL (≈ 1.32 µM) in [9] (ATCC 90028, pH 7); 8 to 16 µg/mL in assay [10] (ATCC 14243, pH 7).
With `CC[C@H](C)C[C@H](C)CCCCCCCCC(=O)N[C@H]1C[C@@H](O)[C@@H](NCCN)NC(=O)[C@@H]2[C@@H](O)CCN2C(=O)[C@H]([C@H](O)CCNC(=O)CCNC(=O)[C@H](Cc2ccccc2)NC(=O)[C@H](CC(C)C)NC(=O)[C@H](CCSC)NC=O)NC(=O)[C@H]([C@H](O)[C@@H](O)c2ccc(O)cc2)NC(=O)[C@@H]2C[C@@H](O)CN2C(=O)[C@H]([C@@H](C)O)NC1=O` [Compound 3], the MEC in assay [1], in [2], in assay [3], in assay [4] and in assay [5] was 1 µg/mL throughout. Also, the “% Neutrophil Migration” value in [6] (conc 0.001 μg/mL) is 1.5%; in [6] (conc 0.01 μg/mL), 109.3%; in assay [6] (conc 0.1 μg/mL) it was 66.2%; in [6] (conc 1 μg/mL) it was −9.7%; in assay [6] (conc 10 μg/mL) it was −11.0%. The MIC in assay [7] (ATCC 90030, pH 7) is 16 µg/mL (≈ 10.1 µM); in assay [8] (ATCC 22019, pH 7), over 32 µg/mL; in assay [9] (ATCC 90028, pH 7), 2 µg/mL (≈ 1.26 µM); in assay [10] (ATCC 14243, pH 7), 16 µg/mL (≈ 10.1 µM).
With `CC[C@H](C)C[C@H](C)CCCCCCCCC(=O)N[C@H]1C[C@@H](O)[C@@H](OCCNC(=O)[C@H](Cc2ccccc2)NC(=O)[C@H](CC(C)C)NC(=O)[C@H](CCSC)NC=O)NC(=O)[C@@H]2[C@@H](O)CCN2C(=O)[C@H]([C@H](O)CCN)NC(=O)[C@H]([C@H](O)[C@@H](O)c2ccc(O)cc2)NC(=O)[C@@H]2C[C@@H](O)CN2C(=O)[C@H]([C@@H](C)O)NC1=O` [Compound 12], the MEC in assay [1] is 0.06 to 0.25 µg/mL; in [2] it was 0.12 to 0.25 µg/mL; in [3], “≦0.03-0.12 μg/mL”; in assay [4], 0.06 to 0.12 µg/mL; in [5] it was “≦0.03-0.12 μg/mL”. Moreover, the MIC in [7] (ATCC 90030, pH 7) is 4 to 8 µg/mL; in assay [8] (ATCC 22019, pH 7), 8 to 16 µg/mL; in assay [9] (ATCC 90028, pH 7), 1 to 2 µg/mL; in [10] (ATCC 14243, pH 7), 8 to 16 µg/mL.
For `C[C@@H](c1ncncc1F)[C@](O)(Cn1cncn1)c1ccc(F)cc1F` [voriconazole, reference compound], the MEC is 0.12 to 0.5 µg/mL in [1]; 0.12 to 0.25 µg/mL in [2]; 0.25 to 2 µg/mL in assay [3]; 0.25 to 0.5 µg/mL in [4]; 0.012-0.5^ μg/mL in assay [5]. Further, the MIC in assay [7] (Nakaseomyces glabratus, ATCC90030, C. glabrata ATCC 90030, RPMI pH 7.0, 35° C., 24-48 hr, read-out: MIC) is 0.12 to 0.25 µg/mL (≈ 0.344 to 0.716 µM); in assay [8] (Lodderomyces parapsilosis, ATCC22019, C. parapsilosis ATCC 22019, RPMI pH 7.0, 35° C., 24-48 hr, read-out: MIC) it was 0.03 to 0.06 µg/mL (≈ 0.0859 to 0.172 µM); in assay [9] (Candida albicans, ATCC90028, C. albicans ATCC 90028, RPMI pH 7.0, 35° C., 24-48 hr, read-out: MIC), 0.06 to 0.5 µg/mL (≈ 0.172 to 1.43 µM); in [10] (Pichia kudriavzevii, ATCC14243, C. krusei ATCC 14243, RPMI pH 7.0, 35° C., 24-48 hr, read-out: MIC) it was 0.25 to 1 µg/mL (≈ 0.716 to 2.86 µM).

The values above are taken from patent US20160213742A1, “COMPOSITIONS AND METHODS FOR THE TREATMENT OF FUNGAL INFECTIONS” (priority 2013, published 2016).
